These results are taken from PMC6770006, “Novel Heat Shock Protein 90 Inhibitors Suppress P-Glycoprotein Activity and Overcome Multidrug Resistance in Cancer Cells” (International Journal of Molecular Sciences, 2019).

The subject of series [1] is NCI-H460 cells. Kind of series: MTT assay, cell growth inhibition, NCI-H460. The class given is cell-based. Particulars: Homo sapiens, 72 h, three independent experiments. As for the experimental part:
(§1) A series of 3-aryl-naphtho[2,3-d]isoxazole-4,9-diones were synthesized (Scheme 1, Figure 1) and their growth inhibition activity was tested in vitro on human non-small cell lung carcinoma NCI-H460, colorectal carcinoma DLD1 and their corresponding MDR cells (NCI-H460/R and DLD1-TxR, respectively), as well as normal embryonic lung fibroblasts MRC-5. The differences in cell growth inhibition between cancer and normal cells obtained by the MTT assay after 72 h treatment are presented in Table 1. The effect of compounds is presented as IC50 values that correspond to the 50% of cell growth inhibition.
(§2) Cell viability was assessed by the MTT assay (AppliChem GmbH, Darmstadt, Germany). Cells grown in 25 cm^2 tissue flasks were trypsinized and 1000 cells/well were seeded into flat-bottomed 96-well tissue culture plates and incubated overnight. Subsequently, the cells were treated with increasing concentrations of Hsp90 inhibitors for 72 h: compound 3 (0.1–2.5 µM), compound 4 (0.25–5 µM), compound 5 (0.5–25 µM), compound 6 (50–1000 nM), compound 7 (10–250 nM), compound 8 (0.25–5 µM), compound 9 (10–250 nM), compound 10 (0.5–25 µM), compound 13 (0.5–10 µM), compound 14 (1–25 µM), and compound 15 (10–250 nM). […] After treatment, MTT was added to each well in a final concentration of 0.2 mg/mL for 4 h. Formazan product was dissolved in 200 µl of DMSO, and the absorbance was measured at 540 nm using an automatic LKB 5060-006 Micro Plate Reader (Vienna, Austria). IC50 value was defined as a concentration of the drug that inhibited cell growth by 50% and was calculated by nonlinear regression analysis using GraphPad Prism 6.0 for Windows (La Jolla, CA, USA). Relative selectivity towards cancer cells was calculated as a relation between IC50 value obtained in MRC-5 cells and an average IC50 value from four tested cancer cell lines.
On the technique in general: Tetrazolium assays rely on reduction of a dye to a coloured formazan, in cell work by metabolically active cells.

The test system of series [2] is NCI-H460/R cells. Put plainly: MTT assay, cell growth inhibition, NCI-H460/R (MDR). It is filed as cell-based, human. Particulars: for Efficacy in MDR NCI-H460/R cells compared with sensitive NCI-H460: 72 h; for IC50: Homo sapiens, NCI-H460, 72 h, MDR cells. As for the experimental part: as §1
(§3) Human colorectal carcinoma (DLD1), non-small cell lung carcinoma (NCI-H460), and normal embryonic lung fibroblast (MRC-5) cell lines were purchased from the American Type Culture Collection, Rockville, MD. P-gp overexpressing multidrug resistant DLD1-TxR cells were selected by continuous exposure to stepwise increasing concentrations of paclitaxel from DLD1 cells, while NCI-H460/R cells were selected from NCI-H460 cells after DOX selective pressure. MDR cancer cell lines, DLD1-TxR and NCI-H460/R, and their sensitive counterparts were maintained in RPMI 1640 medium supplemented with 10% FBS, 2 mM L-glutamine, and 10,000 U/mL penicillin, 10 mg/mL streptomycin, 25 mg/mL amphotericin B solutions. MRC-5 cells were cultured in DMEM supplemented with 10% FBS, 4 g/L glucose, 2 mM L-glutamine and 5000 U/mL penicillin, 5 mg/mL streptomycin solution. All cell lines were sub-cultured at 72 h intervals using 0.25% trypsin/EDTA and seeded into a fresh medium at 8000 cells/cm^2. All cell lines were maintained at 37 °C in a humidified 5% CO2 atmosphere.
as §2

Series [3] deals with DLD1 cells. Kind of series: MTT assay, cell growth inhibition, DLD1. It is filed as cell-based. Particulars: Homo sapiens, DLD-1, 72 h. As for the experimental part: as §1, §2
Series [4] concerns DLD1-TxR cells. Kind of series: MTT assay, cell growth inhibition, DLD1-TxR (MDR). The class given is cell-based, human. The following applies: 72 h; for IC50: Homo sapiens, MDR cells. As for the experimental part:
as §1, §3, §2

The subject of series [5] is MRC-5 cells. Put plainly: MTT assay, normal embryonic lung fibroblasts MRC-5. It is filed as cell-based, human. Particulars: for IC50: Homo sapiens, MRC5, MTT, 72 h, normal fibroblasts, read-out: Cell growth inhibition IC50, MRC-5; for Relative Selectivity: IC50 in MRC-5 cells / average IC50 of four cancer cell lines. As for the experimental part: as §1, §2
Series [6] has as its system NCI-H460, NCI-H460/R, DLD1, DLD1-TxR cells. Kind of series: MTT assay, grouping of inhibitors by IC50 over the cancer cell lines. The class given is cell-based. Particulars: Homo sapiens, Figure 2b, read-out: IC50 values (grouping for Pearson correlation). As for the experimental part: When the IC50 values obtained by the MTT assay were compared to Hsp90 affinity binding IC50 values (Table 1), a positive Pearson correlation (r > 0.5) was found for all cancer cell lines (Figure 2b).
as §2

Series [7] deals with Hsp90. More on the design: method as in PMID 22538015. Particulars: read-out: Hsp90 Affinity binding; cited from earlier work.
Series [8] concerns the target P-gp (Homo sapiens, UniProt P08183). Put plainly: Rhodamine 123 accumulation assay (P-gp activity, flow cytometry). It is filed as cell-based. More on the design: P-gp overexpressing multidrug resistant DLD1-TxR cells were selected by continuous exposure to stepwise increasing concentrations of paclitaxel from DLD1 cells; endogenous in cells; host or cells: NCI-H460/R and DLD1-TxR (drug-selected MDR human cancer cells). Particulars: DLD1-TxR cells, 30 min, Figure 3a. As for the experimental part:
To study the effect of Hsp90 inhibitors on P-gp activity in MDR cancer cells, intracellular accumulation of the P-gp substrate rhodamine 123 (Rho 123) was analyzed by flow cytometry after 30 min treatment (Figure 3a). A well-known inhibitor of P-gp activity, tariquidar (TQ), was included as a positive control.
The accumulation of Rho 123, a fluorescent P-gp substrate, was measured by flow cytometry. The intensity of the fluorescence is proportional to Rho 123 accumulation in the cell. All cell lines were seeded in adherent 6-well plates and grown overnight. DLD1-TxR and NCI-H460/R cells were treated for 30 min with the following concentrations of Hsp90 inhibitors: 500 nM compound 3, 1 µM compound 4, 10 µM compound 5, 500 nM compound 6, 500 nM compound 7, 1 µM compound 8, 500 nM compound 9, 1 µM compound 10, 1 µM compound 13, 10 µM compound 14, 100 nM compound 15. TQ (10 nM) was used as a positive control for Rho 123 accumulation. Rho 123 (5 μM) was simultaneously added with the investigated compounds and the cells were incubated at 37 °C in 5% CO2 for 30 min. The cells were then trypsinized, pelleted by centrifugation, washed with PBS and placed in ice-cold PBS. The samples were kept on ice in the dark until the analysis on CyFlow Space Partec flow cytometer (Sysmex Partec GmbH, Görlitz, Germany). The fluorescence of Rho 123 was detected on fluorescence channel 1 (FL1-H) at 530 nm. A minimum of 10,000 events were collected for each sample and the obtained results were analyzed using Summit software.
On the technique in general: A flow cytometer gives signals particle by particle.

The test system of series [9] is P-gp expression. Kind of series: Flow cytometric analysis of P-gp expression. Particulars: 72 h; 5 µM 5, 200 nM 7, 100 nM 9, 10 nM TQ, 50 nM DOX, 50 nM PTX. It is filed as cell-based, human. As for the experimental part:
P-glycoprotein expression level in NCI-H460, NCI-H460/R, DLD1, and DLD1-TxR and cells was measured by flow cytometry. All cell lines were seeded in adherent 6-well plates and treated with Hsp90 inhibitors for 72 h at the following concentrations: 5 µM compound 5, 200 nM compound 7, 100 nM compound 9 (NCI-H460 and DLD1), and 10 µM compound 5, 500 nM compound 7, 500 nM compound 9 (NCI-H460/R and DLD1-TxR). Cells were also treated with 10 nM TQ, a non-competitive P-gp inhibitor, which served as a positive control. In addition, sensitive cells (NCI-H460 and DLD1) were treated with 50 nM DOX and 50 nM PTX that served as positive controls for the induction of P-gp expression. Then, cells were collected by trypsinization, washed with PBS, and directly immunostained by FITC-conjugated anti-P-gp antibody according to the manufacturer’s protocol. The samples were kept in the dark until the analysis on CyFlow Space Partec flow cytometer (Sysmex Partec GmbH, Görlitz, Germany). The fluorescence of FITC-conjugated anti-P-gp was detected on fluorescence channel 1 (FL1-H) at 530 nm. A minimum of 10,000 events were collected for each sample (the gate excluded cell debris and dead cells) and the obtained results were analyzed with Summit software v4.3 (Dako Colorado Inc., Fort Collins, CO, USA).

The subject of series [10] is NCI-H460/R cells. Put plainly: Combined treatment of compound 5 with DOX, MTT, median effect analysis. The class given is cell-based, human. The following applies: Homo sapiens, NCI-H460, 72 h, DOX alone, 72 h. As for the experimental part: The combined effects of compound 5 with DOX as well as with PTX were studied in NCI-H460/R and DLD1-TxR cells, respectively, by MTT assay. In simultaneous treatments that lasted 72 h in NCI-H460/R cells, three concentrations of compound 5 (2.5, 5, and 10 µM) were combined with increasing concentrations of DOX (250, 500 and 1000 nM), while in DLD1-TxR cells different concentrations of compound 5 (1, 2.5, and 5 µM) were combined with increasing concentrations of PTX (100, 250 and 500 nM). The nature of the interaction between Hsp90 inhibitors and DOX/PTX was analyzed with CalcuSyn software v1.1 (Biosoft, Cambridge, UK) that uses the Combination Index method based on the multiple drug effect equation [54]. Three data points were used for each single drug in each experiment. The non-constant ratio combination was chosen to assess the effect of both drugs in combination. The results are presented in a fraction-affected CI graph. Values of CI < 1 point to a pronounced additive effect or synergism (the smaller value, the greater the degree of synergy). A value of CI = 1 indicates an additive effect, while values of CI > 1 point to an antagonistic effect.

Chain of P-gp (P08183 whole entry): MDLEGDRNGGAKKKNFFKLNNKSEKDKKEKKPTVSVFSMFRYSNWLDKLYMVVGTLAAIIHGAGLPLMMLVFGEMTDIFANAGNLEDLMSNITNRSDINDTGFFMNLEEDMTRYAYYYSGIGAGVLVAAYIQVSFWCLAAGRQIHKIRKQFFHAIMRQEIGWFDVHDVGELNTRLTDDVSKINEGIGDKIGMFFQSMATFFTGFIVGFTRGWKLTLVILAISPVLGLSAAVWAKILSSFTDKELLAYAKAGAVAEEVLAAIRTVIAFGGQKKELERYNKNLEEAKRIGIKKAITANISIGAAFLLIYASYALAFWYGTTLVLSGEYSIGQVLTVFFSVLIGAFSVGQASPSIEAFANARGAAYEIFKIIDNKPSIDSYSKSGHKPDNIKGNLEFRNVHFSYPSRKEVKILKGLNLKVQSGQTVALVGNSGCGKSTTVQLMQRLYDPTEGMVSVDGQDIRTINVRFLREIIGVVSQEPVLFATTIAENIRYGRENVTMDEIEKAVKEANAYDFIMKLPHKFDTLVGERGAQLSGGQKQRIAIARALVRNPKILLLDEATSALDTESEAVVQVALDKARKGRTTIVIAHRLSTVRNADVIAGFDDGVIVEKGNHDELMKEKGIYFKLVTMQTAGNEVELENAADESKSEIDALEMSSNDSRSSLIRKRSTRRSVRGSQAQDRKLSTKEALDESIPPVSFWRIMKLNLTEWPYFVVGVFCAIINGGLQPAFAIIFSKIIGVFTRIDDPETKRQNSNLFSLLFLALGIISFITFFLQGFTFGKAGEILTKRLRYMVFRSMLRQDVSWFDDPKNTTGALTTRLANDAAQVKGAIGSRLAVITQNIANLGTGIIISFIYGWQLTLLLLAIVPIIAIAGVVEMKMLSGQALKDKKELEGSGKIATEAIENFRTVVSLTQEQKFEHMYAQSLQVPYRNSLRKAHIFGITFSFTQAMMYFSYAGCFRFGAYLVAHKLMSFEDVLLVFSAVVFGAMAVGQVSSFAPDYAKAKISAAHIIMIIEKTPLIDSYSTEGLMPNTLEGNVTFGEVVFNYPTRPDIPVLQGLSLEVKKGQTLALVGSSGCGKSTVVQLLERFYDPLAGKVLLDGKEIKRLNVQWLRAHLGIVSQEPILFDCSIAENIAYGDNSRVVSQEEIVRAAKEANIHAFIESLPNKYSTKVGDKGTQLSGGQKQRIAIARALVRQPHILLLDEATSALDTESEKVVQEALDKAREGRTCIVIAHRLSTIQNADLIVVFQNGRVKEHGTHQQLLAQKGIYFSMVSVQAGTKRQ

For the molecule `COc1cccc2c1C(=O)c1c(-c3cc[n+](Cc4ccccc4)cc3)noc1C2=O` [Compound 14], the IC50 is 0.978 ± 0.018 µM in series [1]; 23.6 ± 0.47 µM in series [2]; 7.45 ± 0.212 µM in [3]; 10.6 ± 0.27 µM in [4]; 53.3 ± 1.73 µM in series [5]; ≥ 1 µM in series [6]. For the same molecule, in series [7], the IC50 is 0.34 µM. In addition, in series [2], the “Efficacy in MDR NCI-H460/R cells compared with sensitive NCI-H460” value is listed as “further compromised in the presence of MDR phenotype in both cell lines”. Further, the “Efficacy in MDR DLD1-TxR cells compared with sensitive DLD1” value in series [4] is on record as “further compromised in the presence of MDR phenotype in both cell lines”. Further, the “Relative Selectivity” value in series [5] is 5.00. Also, the “P-gp activity / Rho 123 accumulation in DLD1-TxR” value in series [8] is “partially restored”.
For `CC(=O)Oc1cccc2c1C(=O)c1c(-c3ccncc3)noc1C2=O` [Compound 15], the IC50 in [1] was 0.052 ± 0.002 µM; in [2], 0.039 ± 0.001 µM; in series [3], 0.044 ± 0.001 µM; in [4] it was 0.193 ± 0.007 µM; in [5], 0.25 ± 0.014 µM; in series [6], < 1 µM. The IC50 in [7] is 0.084 µM. Moreover, in series [2], the “Efficacy in MDR NCI-H460/R cells compared with sensitive NCI-H460” value is listed as “maintained”. Moreover, the “Efficacy in MDR DLD1-TxR cells compared with sensitive DLD1” value in series [4] is “lower”. In series [5], the “Relative Selectivity” value was found to be 3.05. In addition, the “P-gp activity / Rho 123 accumulation in DLD1-TxR” value in [8] was “maintained a certain activity”.
As to `COc1cccc2c1C(=O)c1c(O)c3c(c(O)c1C2=O)C[C@@](O)(C(=O)CO)C[C@@H]3O[C@H]1C[C@H](N)[C@H](O)[C@H](C)O1` [DOX, doxorubicin], in series [9], the “Change in P-gp expression, DLD1” value is “significantly increased P-gp expression” and the “Change in P-gp expression, NCI-H460” value was “significantly increased P-gp expression”. Moreover, the IC50 in series [10] came to 2.27 ± 0.0424 µM.
